Results reported in ChEMBL document CHEMBL1201862, “PubChem BioAssay data set” (2004).
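Growth conditions: 96-well plates. Treatment: test compound, 48 hours, 5 concentrations. Analysis: linear interpolation between bracketing concentrations; unreached endpoints set to highest concentration. Here, GI50 denotes the concentration required for 50% inhibition of growth.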 Calls of active or inactive are those of the source. Cut-off read from the data, not from the text of the source: active = GI50 up to about 1.1 µM and inactive = higher.

Columns and labels:
Assay in all cases: NCI-60 cell line screen, 48 h
ACHN = system: ACHN
CCRF-CEM = system: CCRF-CEM
EKVX = system: EKVX
HOP-62 = system: HOP-62
Hs-578T = system: Hs-578T
K562 = system: K562
LOX IMVI = system: LOX IMVI
MCF7 = system: MCF7
MOLT-4 = system: MOLT-4
NCI-H522 = system: NCI-H522
NCI/ADR-RES = system: NCI/ADR-RES
OVCAR-3 = system: OVCAR-3
OVCAR-4 = system: OVCAR-4
SF-539 = system: SF-539
SK-MEL-5 = system: SK-MEL-5
SK-OV-3 = system: SK-OV-3
SNB-19 = system: SNB-19
SNB-75 = system: SNB-75
SW-620 = system: SW-620

Structure (SMILES) | GI50 (ACHN) | GI50 (CCRF-CEM) | GI50 (EKVX) | GI50 (HOP-62) | GI50 (Hs-578T) | GI50 (K562) | GI50 (LOX IMVI) | GI50 (MCF7) | GI50 (MOLT-4) | GI50 (NCI-H522) | GI50 (NCI/ADR-RES) | GI50 (OVCAR-3) | GI50 (OVCAR-4) | GI50 (SF-539) | GI50 (SK-MEL-5) | GI50 (SK-OV-3) | GI50 (SNB-19) | GI50 (SNB-75) | GI50 (SW-620)
CCC1=C(c2ccc(OC)cc2)CC[C@]2(CCNC2=O)[C@@H]1C | 25.6 µM (inactive) | 24.8 µM (inactive) | 28.1 µM (inactive) | 51.2 µM (inactive) | 24.5 µM (inactive) | 21.5 µM (inactive) | 25.1 µM (inactive) | 21.9 µM (inactive) | 15.8 µM (inactive) | 18.3 µM (inactive) | 31.2 µM (inactive) | 22.7 µM (inactive) | 22 µM (inactive) | 28.2 µM (inactive) | 16.8 µM (inactive) | 45.8 µM (inactive) | 34.6 µM (inactive) | 27.4 µM (inactive) | 44.2 µM (inactive)
CC1=NN(C(=O)CC(=O)Nc2ccccc2Cl)C(=O)C1/N=N\c1ccc(S(=O)(=O)c2ccc(/N=N/C3C(=O)N(C(=O)CC(=O)Nc4ccccc4Cl)N=C3C)cc2)cc1 (stereo not drawn) | > 100 µM (inactive) | > 100 µM (inactive) | > 100 µM (inactive) | > 100 µM (inactive) | > 100 µM (inactive) | > 100 µM (inactive) | 54.1 µM (inactive) | > 100 µM (inactive) | > 100 µM (inactive) | > 100 µM (inactive) | > 100 µM (inactive) | > 100 µM (inactive) | > 100 µM (inactive) | > 100 µM (inactive) | > 100 µM (inactive) | > 100 µM (inactive) | > 100 µM (inactive) | > 100 µM (inactive) | > 100 µM (inactive)
COc1ccc(OC)c(CCc2cc(OC)ccc2OC)c1 | > 6.93 µM (inactive) | 2.9 µM (inactive) | 7.53 µM (inactive) | 3.73 µM (inactive) | 2.69 µM (inactive) | 0.912 µM (active) | 0.676 µM (active) | 0.358 µM (active) | 1.91 µM (inactive) | 1.39 µM (inactive) | 0.885 µM (active) | 0.431 µM (active) | > 10 µM (inactive) | 2.07 µM (inactive) | 0.324 µM (active) | 4.33 µM (inactive) | 4.8 µM (inactive) | 2.41 µM (inactive) | 0.935 µM (active)
C[C@@H]1CCC([C@@H](C)[C@H]2CC[C@H]3[C@@H]4CC[C@H]5C[C@@H](O)CC[C@]5(C)[C@H]4CC[C@]23C)=NC1 | 14 µM (inactive) | > 41.1 µM (inactive) | 12.4 µM (inactive) | 13.4 µM (inactive) | 33.7 µM (inactive) | 3.68 µM (inactive) | 3.15 µM (inactive) | 9.04 µM (inactive) | 13 µM (inactive) | 3.96 µM (inactive) | 8.53 µM (inactive) | 20.4 µM (inactive) | 7.46 µM (inactive) | 15 µM (inactive) | 7.64 µM (inactive) | 30.9 µM (inactive) | 10.6 µM (inactive) | 19.1 µM (inactive) | 40.8 µM (inactive)
CC(=O)Oc1c(OC(C)C)cc(=O)n2ccsc12 | > 100 µM (inactive) | 16.1 µM (inactive) | > 100 µM (inactive) | > 100 µM (inactive) | > 100 µM (inactive) | 42.8 µM (inactive) | > 100 µM (inactive) | 52.6 µM (inactive) | 43.9 µM (inactive) | 42.2 µM (inactive) | > 100 µM (inactive) | 78.2 µM (inactive) | > 100 µM (inactive) | > 100 µM (inactive) | 62.8 µM (inactive) | > 100 µM (inactive) | > 100 µM (inactive) | > 100 µM (inactive) | 82 µM (inactive)
O=C(C1OC1c1ccc([N+](=O)[O-])cc1)C12CC3CC(CC(C3)C1)C2 (stereo not drawn) | 18.5 µM (inactive) | 2.79 µM (inactive) | 18.8 µM (inactive) | 24.3 µM (inactive) | 19 µM (inactive) | 13.1 µM (inactive) | 1.69 µM (inactive) | 13.3 µM (inactive) | 18.5 µM (inactive) | 29 µM (inactive) | 17.6 µM (inactive) | 13.7 µM (inactive) | 17.8 µM (inactive) | 15.3 µM (inactive) | 15.6 µM (inactive) | 23.2 µM (inactive) | 17.5 µM (inactive) | 19.1 µM (inactive) | 20.7 µM (inactive)
CC1CC(C)[C@H](O)C([C@H](O)CC2CC(=O)N(C)C(=O)C2)C1 (stereo partly drawn) | > 100 µM (inactive) | > 100 µM (inactive) | > 100 µM (inactive) | > 100 µM (inactive) | > 100 µM (inactive) | > 100 µM (inactive) | > 100 µM (inactive) | > 100 µM (inactive) | > 100 µM (inactive) | 57 µM (inactive) | > 100 µM (inactive) | > 100 µM (inactive) | > 100 µM (inactive) | > 100 µM (inactive) | > 100 µM (inactive) | > 100 µM (inactive) | > 100 µM (inactive) | 95.1 µM (inactive) | > 100 µM (inactive)
